Measured values published in PMC11500612, “Differential effects of inosine monophosphate dehydrogenase (IMPDH/GuaB) inhibition in Acinetobacter baumannii and Escherichia coli” (Journal of Bacteriology, 2024).

Assays:
Type in all cases: biochemical
[1] = biological target: GuaB^Sa (Staphylococcus aureus, UniProt Q2FJM6); assay: NADH production, NAD(P)H-Glo luminescence
Description: NADH production, NAD(P)H-Glo luminescence on GuaB^Sa

[2] = biological target: T1, GuaB^Ec (Escherichia coli, UniProt P0ADG7); assay: NADH production, absorbance at […] nm
T1 sequence (P0ADG7 1-488): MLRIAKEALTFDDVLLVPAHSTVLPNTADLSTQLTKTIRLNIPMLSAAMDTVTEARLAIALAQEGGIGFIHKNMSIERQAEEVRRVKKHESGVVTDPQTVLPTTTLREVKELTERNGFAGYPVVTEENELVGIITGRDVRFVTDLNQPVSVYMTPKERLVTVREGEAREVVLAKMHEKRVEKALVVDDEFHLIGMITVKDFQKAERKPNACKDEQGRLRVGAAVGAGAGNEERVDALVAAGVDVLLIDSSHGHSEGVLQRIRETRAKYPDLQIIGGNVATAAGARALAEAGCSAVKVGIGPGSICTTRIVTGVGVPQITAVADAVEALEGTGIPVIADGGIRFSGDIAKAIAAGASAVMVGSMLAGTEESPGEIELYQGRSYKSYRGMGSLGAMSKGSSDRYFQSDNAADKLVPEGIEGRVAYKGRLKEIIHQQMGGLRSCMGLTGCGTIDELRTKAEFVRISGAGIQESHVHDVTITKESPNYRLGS

[3] = biological target: T2, hIMPDH2 (Homo sapiens, UniProt P12268); assay: enzyme inhibition, method not given
T2 construct: gene IMPDH2; not described in the main text
Description: enzyme inhibition, method not described in main text on hIMPDH2

[4] = biological target: T3, GuaB^Ab (Acinetobacter baumannii, UniProt D0CF46); assay: NADH production, NAD(P)H-Glo luminescence
T3 construct: recombinant A. baumannii GuaB
T3 sequence (D0CF46 1-488): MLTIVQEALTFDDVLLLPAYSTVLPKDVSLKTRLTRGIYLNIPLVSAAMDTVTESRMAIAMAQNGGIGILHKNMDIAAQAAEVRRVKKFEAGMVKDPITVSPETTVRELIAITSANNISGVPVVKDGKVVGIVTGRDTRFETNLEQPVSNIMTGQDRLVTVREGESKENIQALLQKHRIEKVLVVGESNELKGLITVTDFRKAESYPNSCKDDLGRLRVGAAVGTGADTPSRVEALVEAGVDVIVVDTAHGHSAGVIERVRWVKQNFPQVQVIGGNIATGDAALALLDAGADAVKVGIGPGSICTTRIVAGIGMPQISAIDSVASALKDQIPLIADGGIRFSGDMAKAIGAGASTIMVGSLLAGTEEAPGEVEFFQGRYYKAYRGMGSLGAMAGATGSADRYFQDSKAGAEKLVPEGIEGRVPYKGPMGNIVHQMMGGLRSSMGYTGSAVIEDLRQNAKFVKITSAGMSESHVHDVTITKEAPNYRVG
Description: NADH production, NAD(P)H-Glo luminescence on GuaB^Ab

T2 sequence (P12268 2-514): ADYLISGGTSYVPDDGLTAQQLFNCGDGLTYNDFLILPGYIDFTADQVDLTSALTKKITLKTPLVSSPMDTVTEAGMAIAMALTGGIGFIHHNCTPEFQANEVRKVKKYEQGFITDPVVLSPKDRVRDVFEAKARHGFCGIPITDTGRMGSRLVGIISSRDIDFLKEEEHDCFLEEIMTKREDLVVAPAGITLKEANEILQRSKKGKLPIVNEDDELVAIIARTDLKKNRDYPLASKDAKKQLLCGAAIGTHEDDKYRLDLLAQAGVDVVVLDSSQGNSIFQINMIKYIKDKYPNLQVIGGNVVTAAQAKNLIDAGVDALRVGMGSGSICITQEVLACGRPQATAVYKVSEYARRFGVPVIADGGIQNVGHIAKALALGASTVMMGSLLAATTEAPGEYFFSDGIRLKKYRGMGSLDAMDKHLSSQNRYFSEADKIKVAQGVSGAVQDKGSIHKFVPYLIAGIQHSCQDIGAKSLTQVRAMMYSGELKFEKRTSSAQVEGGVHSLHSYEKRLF
Sequence of GuaB^Sa (Q2FJM6 whole entry): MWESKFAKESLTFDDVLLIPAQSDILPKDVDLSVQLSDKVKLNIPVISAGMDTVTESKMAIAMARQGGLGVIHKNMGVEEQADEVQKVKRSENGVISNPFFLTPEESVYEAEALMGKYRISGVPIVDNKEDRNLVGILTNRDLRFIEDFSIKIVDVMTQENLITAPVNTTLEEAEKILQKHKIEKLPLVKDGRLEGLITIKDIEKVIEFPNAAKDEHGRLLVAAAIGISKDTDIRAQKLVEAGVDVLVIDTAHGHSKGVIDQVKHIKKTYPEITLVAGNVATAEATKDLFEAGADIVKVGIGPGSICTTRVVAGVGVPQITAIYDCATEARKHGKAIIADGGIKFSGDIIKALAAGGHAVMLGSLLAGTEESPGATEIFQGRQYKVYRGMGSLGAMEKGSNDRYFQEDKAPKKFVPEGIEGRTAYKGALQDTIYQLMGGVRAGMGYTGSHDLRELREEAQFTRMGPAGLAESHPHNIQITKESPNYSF

Compound C[C@H](Nc1ccc2ncc(CO)cc2c1)C(=O)Nc1ccc(Cl)c(N(C)C)c1 [G2] has an IC50 [1] of 3.5 nM, an IC50 [2] of 15.8 nM and an IC50 [3] of over 50000 nM. For the same compound, the IC50 [4] was 0.666 nM.
Work on C[C@H](Nc1ccc2ncc(CO)cc2c1)C(=O)Nc1ccc(Br)nc1 [G3] yielded an IC50 [1] of 2.45 nM, an IC50 [2] of 91 nM and an IC50 [3] of over 50000 nM. For the same compound, the IC50 [4] was 0.975 nM.
For C[C@H](Nc1ccc(-n2cncn2)cc1)C(=O)Nc1ccc2sc(-c3cc[n+]([O-])cc3)nc2c1 [G4], the IC50 [1] was 0.62 nM, the IC50 [2] was 903 nM and the IC50 [3] was over 50000 nM. The IC50 [4] was 0.617 nM.
C[C@H](Nc1ccc(-n2cccn2)cc1)C(=O)Nc1ccc2sc(-c3ccncc3)nc2c1 [G5] gave an IC50 [1] of 0.511 nM, an IC50 [2] of 569 nM and an IC50 [3] of over 50000 nM. For the same compound, the IC50 [4] was 0.394 nM.
Work on C[C@H](Nc1ccc2ncc(CO)cc2c1)C(=O)Nc1ccc(Cl)c(N2CCOCC2)c1 [G6] yielded an IC50 [1] of 0.801 nM, an IC50 [2] of 5.9 nM and an IC50 [3] of over 50000 nM. For the same compound, the IC50 [4] was 0.564 nM.
